Measured values reported in patent US7947657B2, “Method for selective inhibition of human N-myc gene in N-myc expressing tumors through antisense and antigen peptido-nucleic acids (PNA)” (Universita Degli Studi Di Parma, priority 2003, dated 2011).
Entries after “also recorded” stand apart in the source; their conditions may differ.

Key:
[1] = tested on: N-MYC protein; test: production of N-MYC protein by Western Blotting in IMR-32 cell line; assay type: cell-based, human; conditions: 10 μM
Method: In further tests on sense anti-gene PNA, the production of N-MYC protein was assessed by using Western Blotting in IMR-32 cell line after 3 hours of treatment with 10 μM sense anti-gene PNA. A reduction of 50% of protein level has been detected after 3 hours of treatment with sense anti-gene PNA.

[2] = tested on: GI-LI-N cells; test: cell growth/proliferation test, cell counting and vitality by tryphan blue exclusion; assay type: cell-based, human; conditions: for maximum inhibition effect on cell growth / inhibition effect in proliferation tests: GI-LI-N cells; for maximum inhibition effect on cell growth: 48 hours after treatment
Method: (§1) In order to show the effectiveness of the peptide nucleic acids selected by the Applicant, the latter has carried out experimental tests by selecting four neuroblastoma cell lines: GI-LI-N, IMR-32 where N-myc gene is amplified and overexpressed; and GI-CA-N, GI-ME-N where N-myc gene is not amplified and is not expressed.
(§2) In threefold tests using plates with 24 wells, 1.0×10^5 cells have been introduced into the first wells with 0.5 ml of RPMI1640 containing 10% of FBS and 2 mM of […].
(§3) Cells have been incubated for 24 hours so as to let them adhere to the base of the wells.
(§4) Then, in order to assess the optimal concentration for cell growth inhibition, peptide nucleic acid has been added to GI-LI-N cells in concentration of 10, 20, 40 and 60 μM for 5′-UTR antisense PNA, whereas for sense and antisense anti-gene PNAs in concentrations of 1, 2, 5, 10 and 20 μM on GI-LI-N and IMR-32 cells-
(§5) Then, in order to assess the effects of the treatments, cells have been collected and counted 24, 48 and 72 hours after treatment.
(§6) Cells counting and vitality has been determined using colorimetric exclusion method (tryphan blue dye).

[3] = tested on: IMR-32 cells; test: as above; assay type: cell-based, human; conditions: 10 μM
Method: as §1, §2, §3, §4, §5, §6

[4] = tested on: GI-ME-N cells; test: as above; assay type: cell-based, human; conditions: 10 μM; GI-ME-N cells (N-myc not amplified, not expressed); same conditions
Method: as §1, §2, §3
In order to assess the specificity of sense and antisense anti-gene PNAs, GI-ME-N and GI-CA-N (in which N-myc gene is not amplified and is not expressed) have been treated with sense and antisense anti-gene PNA in a concentration of […] (optimal concentration selected for sense anti-gene PNA).
as §5, §6

[5] = tested on: IMR-32 cells; test: cytofluorimetric cell cycle analysis in IMR-32 cells; assay type: cell-based, human; conditions: 10 μM; for cells in G2/M / cells in Go/G1 / cells in S phase: IMR-32
Method: A cytofluorimetric analysis in IMR-32 cells 24 and 48 hours after the treatment with sense anti-gene PNA in a concentration of 10 μM, induced a cell accumulation in Go/G1 (from 39% to 53% after 24 hours; from 31% to 53% after 48 hours) and decrease in G2/M (from 17% to 6% after 24 hours; from 25% to 9% after 48 hours) and S phase (from 45 to 41% after 24 hours; from 44% to 39% after 48 hours).

[6] = tested on: N-myc transcript; test: production of N-myc transcript by PCR of cDNA from GI-LI-N cells; assay type: cell-based, human; conditions: 10 μM, 30 PCR cycles, easily detected in untreated cells
Method: The production of N-myc transcript was assessed before and after […] treatment with 10 μM sense anti-gene PNA by amplification in PCR of cDNA obtained from 250 ng of mRNA of GI-LI-N cells. The following primers have been used: sense SEQ ID NO: 5 (ExonE 2, by 2366); antisense SEQ ID NO: 6(Exon 3, by 5095) (Genbank M13241). PCR has been carried out with 30 reaction cycles.

[7] = tested on: GI-CA-N cells; test: cell growth/proliferation test, cell counting and vitality by tryphan blue exclusion; assay type: cell-based, human; conditions: same conditions
Method: as §1, §2, §3
In order to assess the specificity of sense and antisense anti-gene PNAs, GI-ME-N and GI-CA-N (in which N-myc gene is not amplified and is not […] for sense anti-gene PNA).
as §5, §6

[8] = tested on: HT29 cells; test: cell growth/proliferation test in colon carcinoma cells; assay type: cell-based; conditions: 10 μM
Method: (§7) The treatment with 10 μM sense anti-gene PNA has also been carried out in HT29 cells (deriving from colon carcinoma) and in HeLa cells (deriving from cervical carcinoma) expressing N-myc gene.

[9] = tested on: HeLa cells; test: cell growth/proliferation test in cervical carcinoma cells; assay type: cell-based; conditions: 10 μM
Method: as §7

[10] = tested on: N-MYC (protein); test: production of N-MYC protein by Western Blotting in GI-LI-N cell line; assay type: cell-based, human; conditions: for N-MYC protein level (Western Blotting): 20 μM, GI-LI-N
[11] = tested on: GI-LI-N cells; test: flow cytometric cell cycle analysis on GI-LI-N cells; assay type: cell-based, human
Source text: Moreover, the number of cells in sub-G1 phase with a hypodiploic DNA content (lower number of chromosomes than diploid DNA, i.e. 2n) increases from 3 to 22%.

[12] = tested on: GI-LI-N cells; test: cell entry and intracellular localization by fluorescence microscopy of rhodamine-conjugated PNA; assay type: cell-based, human
Method: (§8) In order to assess the ability of antisense PNAs and of anti-gene PNAs to get into human neuroblastoma cells and to analyze the subsequent intracellular localization, the Applicant has used four cell lines GI-LI-N and IMR-32, GI-CA-N and GI-ME-N- and has treated them for 30 minutes to 24 hours with 20 μM of antisense or sense PNA conjugated with rhodamine in 5′. Anti-gene PNAs were further conjugated with NLS in 3′.

[13] = tested on: GI-CA-N cells; test: as above; assay type: cell-based, human
Method: as §8

[14] = tested on: GI-LI-N cells; test: microscopic analysis of morphologic changes/differentiation of GI-LI-N cells; assay type: cell-based, human; conditions: 20 μM
Method: In order to assess the differentiation of GI-LI-N cells towards neuronal cells, said cell line has been treated with 20 μM antisense PNA, whereby morphologic changes have been detected by means of microscopic analysis.
Microscope assessment has been carried 36 and 48 hours after GI-LI-N cell growth in the presence or absence of 20 μM antisense PNA.

[15] = 10 μM, cell line not restated (GI-LI-N)
[16] = same test conditions used for sense anti-gene PNA

sense anti-gene PNA: sense anti-gene PNA (SEQ ID NO: 3) complementary to a sequence of exon 2 N-myc gene, NLS-conjugated (ATGCCGGGCATGATCT; all peptide nucleic acid (PNA); SV40 nuclear localization signal peptide conjugated at 3' end, further chemistry not fully specified)
reduction of N-MYC protein level (Western Blotting) ([1]; IMR-32, after 3 hours of treatment): 50%
maximum inhibition effect on cell growth ([2]; 10 μM): 90%
maximum inhibition effect on cell growth ([3]; IMR-32 cells, 48 hours after treatment): 80%
inhibition effect on cell growth [4]: do not show any inhibition effect
cells in G2/M ([5]; after 24 hours, from 17% untreated): 6%
cells in Go/G1 ([5]; after 24 hours, from 39% untreated): 53%
cells in S phase ([5]; after 24 hours, from 45 untreated): 41%
cells in G2/M ([5]; after 48 hours, from 25% untreated): 9%
cells in Go/G1 ([5]; after 48 hours, from 31% untreated): 53%
cells in S phase ([5]; after 48 hours, from 44% untreated): 39%
PCR product of N-myc transcript [6]: cannot be detected
inhibition effect on cell growth ([7]; 10 μM, GI-CA-N cells (N-myc not amplified, not expressed)): do not show any inhibition effect
maximum inhibition effect on cell growth ([8]; 48 hours after treatment): 70%
maximum inhibition effect on cell growth ([9]; 24 hours after treatment): 70%

antisense anti-gene PNA: antisense anti-gene PNA (SEQ ID NO: 4) complementary to a sequence of exon 2 N-myc gene, NLS-conjugated (antisense AGATCATGCCCGGCAT; all peptide nucleic acid (PNA); SV40 nuclear localization signal peptide conjugated at 3' end, further chemistry not fully specified)
inhibition effect in proliferation tests ([2]; 10 μM): have not shown any inhibition effect; also recorded: do not show any inhibition effect
inhibition effect in proliferation tests ([3]; IMR-32 cells): have not shown any inhibition effect; also recorded: do not show any inhibition effect

mutated antisense PNA: mutated PNA containing the substitution of three bases (SEQ ID NO: 2), specificity control for antisense PNA (CCCACTCAGCGCGCCC; all peptide nucleic acid (PNA))
inhibition effect in cell vitality [2, 15]: no inhibition effect
inhibition effect in proliferation tests ([2]; 20 μM): have not shown any inhibition effect
inhibition effect in the amount of N-MYC protein [10, 15]: no inhibition effect
inhibition effect in cell cycle [11, 15]: no inhibition effect

antisense PNA: antisense peptide nucleic acid (bp 135-150, SEQ ID NO: 1) complementary to one sequence in 5′-UTR region of N-myc gene (antisense TCCACCCAGCGCGTCC; all peptide nucleic acid (PNA))
maximum inhibition effect on cell growth ([2]; 20 μM): 70%
time after treatment at which intracytoplasmatic fluorescence can already be measured ([12]; 20 μM PNA conjugated with rhodamine in 5′, GI-LI-N): ≤ 30 min
time to maximum fluorescence intensity ([12]; 20 μM rhodamine-conjugated PNA, GI-LI-N, level then constant for 24 hours): 6 h
intracellular localization of fluorescence ([12]; 20 μM rhodamine-conjugated PNA, cell lines of b80): High intracytoplasmatic values
time after treatment at which intracytoplasmatic fluorescence can already be measured ([13]; 20 μM PNA conjugated with rhodamine in 5′): ≤ 30 min
time to maximum fluorescence intensity ([13]; 20 μM rhodamine-conjugated PNA, level then constant for 24 hours): 6 h
morphologic changes (microscope) ([14]; after 36 hours): less uniform distribution than control cells
morphologic changes (microscope) ([14]; after 48 hours): tend to form small cell aggregates
inhibition effect on cell growth ([7]; 20 μM, GI-CA-N cells (N-myc not amplified)): do not show any inhibition effect
N-MYC protein level (Western Blotting) ([10]; after 24 hours): evident reduction
N-MYC protein level (Western Blotting) ([10]; after 72 hours): reduction decreases
cells in sub-G1 phase with hypodiploic DNA content ([11]; 20 μM, GI-LI-N, 36 hours after treatment, from 3 untreated): 22%
cells in G2 ([11]; 20 μM, GI-LI-N, 36 hours after treatment, from 13 untreated): 6%
cells in G0/G1 ([11]; 20 μM, GI-LI-N, 36 hours after treatment, from 34% untreated): 57%
cells in S phase ([11]; 20 μM, GI-LI-N, 36 hours after treatment, from 53% untreated): 37%

mutated anti-gene PNA: mutated PNA containing the substitution of three bases (SEQ ID NO: 7), specificity control for sense anti-gene PNA (GTGCCGAGCATGGTCT; all peptide nucleic acid (PNA))
inhibition effect in the amount of N-MYC protein [1, 16]: No inhibition effect
inhibition effect in cell vitality [3, 16]: No inhibition effect
inhibition effect in cell cycle [5, 16]: No inhibition effect
inhibition effect in proliferation tests [8]: have not shown any inhibition effect
inhibition effect in proliferation tests [9]: have not shown any inhibition effect
